Experimental data taken from the NIST ThermoML archive (doi:10.1016/j.jct.2015.04.027).

Assay: xn = mol fraction of the nth substance listed
Details: 100 kPa, Liquid; for viscosity: Falling or rolling sphere viscometry; for mass density: Vibrating tube method

CN(C)C(=[NH2+])N(C)C.c1c[n-]cn1 [1,1,3,3-tetramethylguanidinium imidazol-1-ide] + CO
Details	mass density, 293.15 K [kg/m3]	mass density, 298.15 K [kg/m3]	mass density, 303.15 K [kg/m3]	mass density, 308.15 K [kg/m3]	mass density, 313.15 K [kg/m3]	viscosity, 293.15 K [mPa·s]	viscosity, 298.15 K [mPa·s]	viscosity, 303.15 K [mPa·s]	viscosity, 308.15 K [mPa·s]	viscosity, 313.15 K [mPa·s]
x1 = 0.0501	840.28	835.36	830.44	825.51	820.57	0.905	0.829	0.765	0.709	0.659
x1 = 0.1005	872.86	868.04	863.19	858.35	853.49	1.272	1.108	1.014	0.931	0.859
x1 = 0.1957	912.69	907.98	903.25	898.51	893.76	1.979	1.768	1.592	1.442	1.314
x1 = 0.2953	938.06	933.41	928.74	924.08	919.38	2.761	2.423	2.148	1.918	1.724
x1 = 0.393	954.84	950.24	945.62	941	936.36	3.723	3.212	2.804	2.468	2.192
x1 = 0.5005	968.24	963.68	959.1	954.53	949.94	4.794	4.098	3.53	3.077	2.702
x1 = 0.6431	980.21	975.69	971.16	966.63	962.09	6.21	5.186	4.369	3.783	3.274
x1 = 0.7815	988.47	983.99	979.49	975	970.51	7.421	6.122	5.141	4.38	3.777
x1 = 0.8994	993.77	989.31	984.84	980.37	975.91	8.342	6.826	5.692	4.819	4.134
x1 = 1	997.25	992.8	988.35	983.9	979.46	8.952	7.287	6.044	5.097	4.358
